Measurements: paper PMC5435687 (Scientific Reports, 2017)
“Also recorded” adds a separate entry of the source. Counter-ions that a name gives are not always drawn.

What was measured:
[1] = test system: SH-SY5Y cells; assay: Transferrin (Trf) uptake under pharmacological endocytosis inhibitors (control for clathrin-mediated endocytosis); assay type: cell-based, human; details: for effect of inhibitor on Trf uptake: 10 µM cytochalasin A, 25 µg/ml cytochalasin D, 10 µM IPA-3 or 25 nM wortmannin, Trf 5 µg/ml 5 min
Method: (§1) Flow cytometry was used to quantify cellular uptake. The samples were washed in serum free medium (1x for experiments including only Aβ and 3x for experiments with Trf) prior to incubation with Aβ peptides and/or other reagents in serum free medium supplemented with 30 mM HEPES and 2% B-27. For experiments including Trf B-27 was omitted, as outlined above. Prior to analysis, the cells were washed 1x (for experiments including only Aβ) or 3x (for experiments including Aβ and dextran 10 kDa or Trf) in serum free medium, detached by trypsin-EDTA for 10 min followed by addition of FBS-supplemented cell culture medium to inhibit further proteolytic degradation. All samples were kept on ice until they were analysed on a Guava EasyCyte 8HT (Millipore, Darmstadt, Germany) that automatically retrieves samples from a 96-well plate. In order to exclude effects due to difference in delay time we used mixed order of analysis, loading only a few samples at a time with the remaining samples kept on ice. The cell counting gate was determined using propidium iodide (0.5 µM, not washed away prior to analysis) and calcein-AM (10 nM, 15 min staining) to distinguish live and dead cells, and for each sample 5,000 cells from within the live gate were counted and analysed. HF488, AlexaFluor488, EGFP and calcein-AM were excited by a 488 nm laser and their fluorescence was detected through a 525/30 nm filter. Propidium iodide and mRFP were excited by the 488 nm laser but detected through a 692/46 nm filter. HF647 and AlexaFluor647 were excited with a 635 nm laser and detected through a 661/19 nm filter. Compensation was performed to adjust for bleed through in experiments including mRFP. Mean cellular uptake was estimated as the average fluorescence intensity of all cells gated within the live region and all individual experiments were performed with three technical replicates (n = 3) unless else is stated. The average fluorescence intensity was baseline corrected by subtracting the signal for unstained cells.
Endocytic mechanisms were also perturbed by treatment of cells with pharmacological inhibitors. Stock solutions of cytochalasin A, cytochalasin D, dynasore, wortmannin and IPA-3 were prepared in DMSO and diluted in serum-free cell culture media supplemented with 30 mM HEPES on the day of the experiment. The final DMSO concentration added to the cells was kept <0.1% and matched for the control. Prior to addition of Aβ peptide the cells were always washed in serum-free medium followed by pre-incubation for 30 min with either of the inhibitors diluted in serum-free medium with the addition of 30 mM HEPES. 1 µM Aβ was thereafter added and the cells were incubated for a total of 1 h, in presence of the respective inhibitors. The cells were centrifuged 1000 * g for 5 min at 4 °C, washed 3x with ice-cold serum-free medium, followed by detachment and immediate flow cytometry analysis, as detailed above. […] However, under exposure conditions where at least 75% if the inhibitor-treated cells were found in the live gate (see Supplementary Fig. S5) we observed reductions in Aβ uptake. Only the live cells were included in the analysis. Trf was used as a positive control for clathrin-mediated endocytosis. Due to the rapid uptake and recycling of internalized Trf we adopted an optimized protocol with sufficiently short Trf incubation times. First, to remove the quantities of membrane-bound Trf that originate from the serum component of the complete culture medium the cells were washed 3x in serum-free medium. The cells were then subjected to the inhibitors as described above and thereafter exposed to a 5 min pulse of 5 µg/ml Trf. To remove externally bound fluorescently labelled Trf the cells were thereafter washed (3x/2 min) in ice-cold acidic buffer (0.1 M Glycine-HCl buffer pH 2.5 with 150 mM NaCl)[35] whilst kept on ice. […]

[2] = Stability of CPZ in aqueous solution; assay type: physicochemical; details: aqueous solution / cell culture medium
[3] = test system: SH-SY5Y cells; assay: Cell viability by flow cytometry FSC/SSC live/dead gating; assay type: cell-based; details: for fraction of inhibitor-treated cells in the live gate: 90 min exposure at the concentrations used (10 µM cytochalasin A, 25 µg/ml cytochalasin D, 10 µM IPA-3, 25 nM wortmannin, 5 µg/ml CPZ, 80 µM dynasore), FSC/SSC gating
Method: Flow cytometry was used to quantify cellular uptake. […] For experiments including Trf B-27 was omitted, as outlined above. […] All samples were kept on ice until they were analysed on a Guava EasyCyte 8HT (Millipore, Darmstadt, Germany) that automatically retrieves samples from a 96-well plate. In order to exclude effects due to difference in delay time we used mixed order of analysis, loading only a few samples at a time with the remaining samples kept on ice. The cell counting gate was determined using propidium iodide (0.5 µM, not washed away prior to analysis) and calcein-AM (10 nM, 15 min staining) to distinguish live and dead cells, and for each sample 5,000 cells from within the live gate were counted and analysed. […] Compensation was performed to adjust for bleed through in experiments including mRFP. Mean cellular uptake was estimated as the average fluorescence intensity of all cells gated within the live region and all individual experiments were performed with three technical replicates (n = 3) unless else is stated. The average fluorescence intensity was baseline corrected by subtracting the signal for unstained cells.
(1 picture or pasted object on this page, not shown here)

[4] = test system: SH-SY5Y cells transfected with dyn2 K44A; assay: Uptake in cells transfected with dominant negative dynamin2 K44A; assay type: cell-based, human; details: SH-SY5Y 24 h post transfection; HF647-labelled Aβ 1 µM 1 h or AF647-Trf 5 µg/ml 5 min; gated low/medium/high EGFP; N = 2, n = 3–5
Method: as §1, with “In order to exclude effects due to difference in delay time we used mixed order of analysis, loading only a few samples at a time with the remaining samples kept on ice.” left out, “HF647 and AlexaFluor647 were excited with a 635 nm laser and detected through a 661/19 nm filter. Compensation was performed to adjust for bleed through in experiments including mRFP. Mean cellular uptake was estimated as the average fluorescence intensity of all cells gated within the live region and all individual experiments were performed with three technical replicates (n = 3) unless else is stated. The average fluorescence intensity was baseline corrected by subtracting the signal for unstained cells.” left out

[5] = test system: SH-SY5Y cells transfected with AP180-C; assay: Uptake in cells overexpressing AP180-C; assay type: cell-based, human; details: SH-SY5Y 24 h post transfection; HF488-labelled Aβ 1 µM 1 h or AF647-Trf 5 µg/ml 5 min; low and high mRFP gates; N = 2, n = 2–4
Method: as §1, with “cells. […]” for “cells.”

Compound | effect of inhibitor on Trf uptake ([1]; n = 3) | fraction of inhibitor-treated cells in the live gate [3] | further results
CN(C)CCCN1c2ccccc2Sc2ccc(Cl)cc21 [CPZ, chlorpromazine hydrochloride] | – | – | inhibition at 5 µg/mL ([1]; Homo sapiens, 5 µg/ml CPZ, Trf 5 µg/ml 5 min pulse at end of 1 h Aβ incubation, n = 3): ~30%; stability in solution [2]: rapidly degraded in aqueous solutions; also recorded: rapid degradation in solution
CCN(c1nc(N)c(C(=O)NC(=N)N)nc1Cl)C(C)C [EIPA] | – | – | specificity as macropinocytosis inhibitor ([1]; 25–200 µM): unspecific in SH-SY5Y cells regardless of the concentration used
Oc1ccc2ccccc2c1SSc1c(O)ccc2ccccc12 [IPA-3, 1,1′-Disulfanediyldinaphthalen-2-ol] | identical to that in the control | at least 90% | –
C=C1[C@@H](C)[C@H]2[C@H](Cc3ccccc3)NC(=O)[C@]23OC(=O)/C=C/C(=O)CCC[C@@H](C)C/C=C/[C@H]3[C@@H]1O [cytochalasin A] | reduced the uptake of Trf | > 85% | –
C=C1[C@@H](C)[C@H]2[C@H](Cc3ccccc3)NC(=O)[C@]23[C@H](OC(C)=O)/C=C/[C@@](C)(O)C(=O)[C@@H](C)C/C=C/[C@H]3[C@@H]1O [cytochalasin D] | reduced the uptake of Trf | > 85% | –
O=C(N/N=C/c1ccc(O)c(O)c1)c1cc2ccccc2cc1O [dynasore] | – | – | inhibition at 80 µM ([1]; Homo sapiens, 5 min, 80 µM dynasore, 5 µg/ml AF647-Trf 5 min pulse, range over 4 independent experiments): 30 to 65%
COC[C@H]1OC(=O)c2coc3c2[C@@]1(C)C1=C(C3=O)[C@@H]2CCC(=O)[C@@]2(C)C[C@H]1OC(C)=O [wortmannin] | identical to that in the control | at least 90% | –
Transferrin [Trf] | – | – | uptake in dyn2 K44A transfected cells relative to non-transfected cells [4]: inhibited in proportion to the degree of dyn2 K44A expression; uptake in AP180-C transfected cells compared to non-transfected cells [5]: systematically decreased with the degree of AP180-C overexpression
methyl-β-cyclodextrin | – | – | cytotoxicity during cholesterol depletion [3]: high levels of cytotoxicity
